From the supplement of paper PMC11579375

Key:
Test in all cases: area under the viability dose-response curve (AUC) (AUC (arbitrary units, max 500 = no viability loss)); higher = less sensitive (higher viability)
Settings in all cases: exposure time: 120 h; concentration range: 0.1 nM - 10 µM, 6 doses
[1] = test system: 10F2 (fetal-II hepatoblastoma organoid with high liver markers)
Method: (§1)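 Patient-derived hepatoblastoma tumor organoids (about 50 organoids per well, 384-well plates, medium with 5% BME) were treated with the PMC pediatric cancer drug library. Each drug was tested in duplicate at 6 concentrations (0.1 nM to 10 µM, 10-fold steps).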

[2] = test system: 27F1 (fetal-I hepatoblastoma organoid with intermediate liver markers)
Method: as §1

[3] = test system: 8F1 (fetal-I hepatoblastoma organoid with intermediate liver markers)
Method: as §1

[4] = test system: 17E (embryonal-type hepatoblastoma organoid)
Method: as §1

[5] = test system: 135F2 (fetal-II hepatoblastoma organoid with high liver markers)
Method: as §1

[6] = test system: 22E (embryonal-type hepatoblastoma organoid)
Method: as §1

[7] = test system: 13F2 (fetal-II hepatoblastoma organoid with high liver markers)
Method: as §1

[8] = test system: 3E (embryonal-type hepatoblastoma organoid)
Method: as §1

[9] = test system: 96F1 (fetal-I hepatoblastoma organoid with intermediate liver markers)
Method: as §1

[10] = test system: 13E (embryonal-type hepatoblastoma organoid)
Method: as §1

[11] = test system: 17F1 (fetal-I hepatoblastoma organoid with intermediate liver markers)
Method: as §1

Row | Compound | area under the viability dose-response curve [1] | area under the viability dose-response curve [2] | area under the viability dose-response curve [3] | area under the viability dose-response curve [4] | area under the viability dose-response curve [5] | area under the viability dose-response curve [6] | area under the viability dose-response curve [7] | area under the viability dose-response curve [8] | area under the viability dose-response curve [9] | area under the viability dose-response curve [10] | area under the viability dose-response curve [11]
1 | CC(C)C[C@H](NC(=O)[C@H](CCc1ccccc1)NC(=O)CN1CCOCC1)C(=O)N[C@@H](Cc1ccccc1)C(=O)N[C@@H](CC(C)C)C(=O)[C@@]1(C)CO1 [Carfilzomib] | 323 | 332 | 350 | 247 | 194 | 347 | 217 | 242 | 355 | 362 | 269
2 | COc1cc(C(=O)O)ccc1NC(=O)[C@@H]1N[C@@H](CC(C)(C)C)[C@](C#N)(c2ccc(Cl)cc2F)[C@H]1c1cccc(Cl)c1F [Idasanutlin] | 291 | 402 | 371 | 378 | 397 | 450 | 282 | 349 | 471 | 413 | 457
3 | CC1=C(/C=C/C(C)=C/C=C/C(C)=C\C(=O)O)C(C)(C)CCC1 [Isotretinoin] | > 500 | > 500 | > 500 | 495 | 496 | 472 | > 500 | 440 | > 500 | 468 | > 500
4 | S=c1nc[nH]c2nc[nH]c12 [6-Mercaptopurine] | 478 | 469 | 465 | 429 | 402 | 460 | 443 | > 500 | 420 | 449 | 451
5 | COc1cc([C@@H]2c3cc4c(cc3[C@@H](O[C@@H]3O[C@@H]5CO[C@@H](C)O[C@H]5[C@H](O)[C@H]3O)[C@H]3COC(=O)[C@H]23)OCO4)cc(OC)c1O [Etoposide] | 388 | 446 | 477 | 349 | 389 | 446 | 359 | 378 | 383 | 380 | 438
6 | CC(=O)O[C@H]1C(=O)[C@@]2(C)[C@H]([C@H](OC(=O)c3ccccc3)[C@]3(O)C[C@H](OC(=O)[C@H](O)[C@@H](NC(=O)c4ccccc4)c4ccccc4)C(C)=C1C3(C)C)[C@]1(OC(C)=O)CO[C@@H]1C[C@@H]2O [Paclitaxel] | 179 | 250 | 312 | 174 | 211 | 229 | 215 | 145 | 179 | 196 | 222
7 | C[C@]12CCCN1CC1=NNC(=O)c3cc(F)cc4[nH]c2c1c34 [Pamiparib] | 439 | 487 | 479 | > 500 | 478 | 473 | 443 | 459 | 494 | 481 | > 500
8 | CCN1CCN(Cc2ccc(Nc3ncc(F)c(-c4cc(F)c5nc(C)n(C(C)C)c5c4)n3)nc2)CC1 [Abemaciclib] | 314 | 402 | 448 | 284 | 360 | 395 | 314 | 264 | 411 | 408 | 452
9 | CC(C)c1c(-c2ccccc2)nc2c(C#N)c[nH]n2c1=O [CPI-455] | 469 | > 500 | > 500 | > 500 | > 500 | > 500 | > 500 | > 500 | > 500 | > 500 | 498
10 | Nc1ccccc1NC(=O)c1ccc(CNC(=O)OCc2cccnc2)cc1 [Entinostat] | 358 | 462 | 426 | 428 | 455 | 439 | 429 | 386 | 483 | 425 | 434
11 | CC[C@@H]1C(=O)N(C)c2cnc(Nc3ccc(C(=O)N[C@H]4CC[C@H](N5CCN(CC6CC6)CC5)CC4)cc3OC)nc2N1C(C)C [Volasertib] | 227 | 255 | 351 | 249 | 257 | 326 | 278 | 278 | 281 | 263 | 331
12 | FC(F)(F)c1ccc(/C=C/c2nc(COc3ccc(CCCCn4ccnn4)cc3)co2)cc1 [Mubritinib] | 438 | 335 | 263 | 419 | 334 | 449 | 264 | 429 | 269 | 339 | 245
13 | CC[C@@]1(O)C(=O)OCc2c1cc1n(c2=O)Cc2cc3ccccc3nc2-1 [Camptothecin] | 219 | 255 | 295 | 263 | 227 | 361 | 174 | 201 | 208 | 304 | 277
14 | Cc1ccc(NC(=O)c2ccc(CN3CCN(C)CC3)cc2)cc1Nc1nccc(-c2cccnc2)n1 [Imatinib] | 488 | 481 | 483 | 496 | 478 | 500 | 498 | 487 | 498 | 499 | 478
15 | Cn1cnc2c(F)c(Nc3ccc(Br)cc3F)c(C(=O)NOCCO)cc21 [Binimetinib] | 343 | 499 | > 500 | 424 | 396 | 489 | 379 | > 500 | 481 | 490 | 458
16 | O=C(c1ccc(F)c(F)c1Nc1ccc(I)cc1F)N1CC(O)([C@@H]2CCCCN2)C1 [Cobimetinib] | 220 | 381 | 455 | 362 | 300 | 448 | 266 | 372 | 430 | 429 | 438
